Experimental data published in the NIST ThermoML archive (doi:10.1016/j.fluid.2016.02.009).
± gives the expanded uncertainty stated by the source.

Conditions: Liquid, Vibrating tube method

**Q.** Which mass density (308.15 K, 35000 kPa) does the source give for `CCCCOCC` [butyl ethyl ether] here?
**A.** 768.44 ± 0.55 kg/m3

**Q.** What about the mass density (308.15 K, 40000 kPa) of the same compound?
**A.** 772.26 ± 0.59 kg/m3

**Q.** What about the mass density (308.15 K, 45000 kPa) of the same compound?
**A.** 775.95 ± 0.63 kg/m3

**Q.** And the mass density (308.15 K, 50000 kPa)?
**A.** 779.48 ± 0.66 kg/m3

**Q.** And the mass density (308.15 K, 55000 kPa)?
**A.** 782.89 ± 0.7 kg/m3

**Q.** What about the mass density (308.15 K, 60000 kPa) of the same compound?
**A.** 786.19 ± 0.73 kg/m3

**Q.** And the mass density (308.15 K, 65000 kPa)?
**A.** 789.36 ± 0.77 kg/m3

**Q.** And the mass density (313.15 K, 100 kPa)?
**A.** 730.45 ± 0.3 kg/m3

**Q.** What about the mass density (313.15 K, 5000 kPa) of the same compound?
**A.** 736.34 ± 0.33 kg/m3

**Q.** What about the mass density (313.15 K, 10000 kPa) of the same compound?
**A.** 741.76 ± 0.37 kg/m3

**Q.** What about the mass density (313.15 K, 15000 kPa) of the same compound?
**A.** 746.82 ± 0.41 kg/m3

**Q.** And the mass density (313.15 K, 20000 kPa)?
**A.** 751.59 ± 0.44 kg/m3

**Q.** And the mass density (313.15 K, 25000 kPa)?
**A.** 756.09 ± 0.48 kg/m3

**Q.** And the mass density (313.15 K, 30000 kPa)?
**A.** 760.38 ± 0.52 kg/m3

**Q.** What about the mass density (313.15 K, 35000 kPa) of the same compound?
**A.** 764.5 ± 0.56 kg/m3

**Q.** And the mass density (313.15 K, 40000 kPa)?
**A.** 768.36 ± 0.6 kg/m3

**Q.** And the mass density (313.15 K, 45000 kPa)?
**A.** 772.14 ± 0.63 kg/m3

**Q.** And the mass density (313.15 K, 50000 kPa)?
**A.** 775.74 ± 0.67 kg/m3

**Q.** And the mass density (313.15 K, 55000 kPa)?
**A.** 779.22 ± 0.71 kg/m3

**Q.** And the mass density (313.15 K, 60000 kPa)?
**A.** 782.57 ± 0.74 kg/m3

**Q.** What about the mass density (313.15 K, 65000 kPa) of the same compound?
**A.** 785.85 ± 0.78 kg/m3

**Q.** And the mass density (318.15 K, 100 kPa)?
**A.** 725.44 ± 0.3 kg/m3

**Q.** What about the mass density (318.15 K, 5000 kPa) of the same compound?
**A.** 731.57 ± 0.33 kg/m3

**Q.** What about the mass density (318.15 K, 10000 kPa) of the same compound?
**A.** 737.2 ± 0.37 kg/m3

**Q.** And the mass density (318.15 K, 15000 kPa)?
**A.** 742.41 ± 0.41 kg/m3

**Q.** And the mass density (318.15 K, 20000 kPa)?
**A.** 747.31 ± 0.45 kg/m3

**Q.** What about the mass density (318.15 K, 25000 kPa) of the same compound?
**A.** 751.96 ± 0.48 kg/m3

**Q.** What about the mass density (318.15 K, 30000 kPa) of the same compound?
**A.** 756.38 ± 0.52 kg/m3

**Q.** What about the mass density (318.15 K, 35000 kPa) of the same compound?
**A.** 760.54 ± 0.56 kg/m3

**Q.** What about the mass density (318.15 K, 40000 kPa) of the same compound?
**A.** 764.55 ± 0.6 kg/m3

**Q.** And the mass density (318.15 K, 45000 kPa)?
**A.** 768.4 ± 0.64 kg/m3

**Q.** And the mass density (318.15 K, 50000 kPa)?
**A.** 772.07 ± 0.68 kg/m3

**Q.** What about the mass density (318.15 K, 55000 kPa) of the same compound?
**A.** 775.65 ± 0.71 kg/m3

**Q.** What about the mass density (318.15 K, 60000 kPa) of the same compound?
**A.** 779.08 ± 0.75 kg/m3

**Q.** And the mass density (318.15 K, 65000 kPa)?
**A.** 782.35 ± 0.78 kg/m3

**Q.** What about the mass density (323.15 K, 100 kPa) of the same compound?
**A.** 720.43 ± 0.3 kg/m3

**Q.** And the mass density (323.15 K, 5000 kPa)?
**A.** 726.77 ± 0.34 kg/m3

**Q.** And the mass density (323.15 K, 10000 kPa)?
**A.** 732.59 ± 0.37 kg/m3

**Q.** And the mass density (323.15 K, 15000 kPa)?
**A.** 738 ± 0.41 kg/m3

**Q.** And the mass density (323.15 K, 20000 kPa)?
**A.** 743.03 ± 0.45 kg/m3

**Q.** And the mass density (323.15 K, 25000 kPa)?
**A.** 747.78 ± 0.48 kg/m3

**Q.** What about the mass density (323.15 K, 30000 kPa) of the same compound?
**A.** 752.29 ± 0.53 kg/m3

**Q.** And the mass density (323.15 K, 35000 kPa)?
**A.** 756.59 ± 0.57 kg/m3

**Q.** And the mass density (323.15 K, 40000 kPa)?
**A.** 760.68 ± 0.61 kg/m3

**Q.** And the mass density (323.15 K, 45000 kPa)?
**A.** 764.61 ± 0.65 kg/m3

**Q.** What about the mass density (323.15 K, 50000 kPa) of the same compound?
**A.** 768.4 ± 0.69 kg/m3

**Q.** And the mass density (323.15 K, 55000 kPa)?
**A.** 771.97 ± 0.72 kg/m3

**Q.** What about the mass density (323.15 K, 60000 kPa) of the same compound?
**A.** 775.47 ± 0.76 kg/m3

**Q.** What about the mass density (323.15 K, 65000 kPa) of the same compound?
**A.** 778.87 ± 0.79 kg/m3

**Q.** And the mass density (328.15 K, 100 kPa)?
**A.** 715.37 ± 0.3 kg/m3

**Q.** And the mass density (328.15 K, 5000 kPa)?
**A.** 721.95 ± 0.34 kg/m3

**Q.** What about the mass density (328.15 K, 10000 kPa) of the same compound?
**A.** 727.94 ± 0.37 kg/m3

**Q.** What about the mass density (328.15 K, 15000 kPa) of the same compound?
**A.** 733.52 ± 0.41 kg/m3

**Q.** And the mass density (328.15 K, 20000 kPa)?
**A.** 738.72 ± 0.45 kg/m3

**Q.** What about the mass density (328.15 K, 25000 kPa) of the same compound?
**A.** 743.64 ± 0.49 kg/m3

**Q.** What about the mass density (328.15 K, 30000 kPa) of the same compound?
**A.** 748.27 ± 0.53 kg/m3

**Q.** And the mass density (328.15 K, 35000 kPa)?
**A.** 752.68 ± 0.57 kg/m3

**Q.** And the mass density (328.15 K, 40000 kPa)?
**A.** 756.87 ± 0.62 kg/m3

**Q.** What about the mass density (328.15 K, 45000 kPa) of the same compound?
**A.** 760.88 ± 0.65 kg/m3

**Q.** What about the mass density (328.15 K, 50000 kPa) of the same compound?
**A.** 764.73 ± 0.69 kg/m3

**Q.** And the mass density (328.15 K, 55000 kPa)?
**A.** 768.42 ± 0.73 kg/m3

**Q.** And the mass density (328.15 K, 60000 kPa)?
**A.** 771.99 ± 0.77 kg/m3

**Q.** What about the mass density (328.15 K, 65000 kPa) of the same compound?
**A.** 775.41 ± 0.8 kg/m3

**Q.** And the mass density (333.15 K, 100 kPa)?
**A.** 710.26 ± 0.3 kg/m3

**Q.** What about the mass density (333.15 K, 5000 kPa) of the same compound?
**A.** 717.05 ± 0.34 kg/m3

**Q.** And the mass density (333.15 K, 10000 kPa)?
**A.** 723.28 ± 0.38 kg/m3

**Q.** And the mass density (333.15 K, 15000 kPa)?
**A.** 729.03 ± 0.42 kg/m3

**Q.** And the mass density (333.15 K, 20000 kPa)?
**A.** 734.4 ± 0.45 kg/m3

**Q.** And the mass density (333.15 K, 25000 kPa)?
**A.** 739.43 ± 0.49 kg/m3

**Q.** And the mass density (333.15 K, 30000 kPa)?
**A.** 744.2 ± 0.54 kg/m3

**Q.** And the mass density (333.15 K, 35000 kPa)?
**A.** 748.71 ± 0.58 kg/m3

**Q.** What about the mass density (333.15 K, 40000 kPa) of the same compound?
**A.** 753.02 ± 0.62 kg/m3

**Q.** What about the mass density (333.15 K, 45000 kPa) of the same compound?
**A.** 757.13 ± 0.66 kg/m3

**Q.** What about the mass density (333.15 K, 50000 kPa) of the same compound?
**A.** 761.02 ± 0.7 kg/m3

**Q.** What about the mass density (333.15 K, 55000 kPa) of the same compound?
**A.** 764.8 ± 0.74 kg/m3

**Q.** What about the mass density (333.15 K, 60000 kPa) of the same compound?
**A.** 768.41 ± 0.78 kg/m3

**Q.** What about the mass density (333.15 K, 65000 kPa) of the same compound?
**A.** 771.92 ± 0.81 kg/m3
